# Laboratory results reported in patent US20190290683A1 (KEIO UNIVERSITY, priority 2016, published 2019).
# Read-outs that look alike come from different tables or passages of the source.
# Assays:
# [1] = test system: rat hemorrhagic shock model; conditions: 6 hours after initiation of resuscitation; 1.3% hydrogen+26% oxygen+72.7% nitrogen inhaled 0 to 120 minutes (resuscitation phase only); control 30%
# Description: In this test, improvement of the survival rate by hydrogen inhalation at the initiation point of resuscitation after shock in rat hemorrhagic shock model was evaluated.
# The procedure in SD rats (250-300 g) to exsanguinate so that mean arterial pressure of 30-35 mmHg was maintained for 60 minutes, and then resuscitate with four times the exsanguinated volume of saline over 15 minutes to evaluate the survival rate at 6 hours after initiation of resuscitation was according to [Example 1].
# In this test, test gas was given by inhalation as follows.
# [2] = test system: hemorrhagic shock model; conditions: for Exsanguinated/body weight (ml/100 g): exsanguinated volume per 100 g of body weight to maintain blood pressure at 30-35 mmHg
# Description: In this Example, the effect of hydrogen gas on a hemorrhagic shock model was evaluated according to the test protocol shown in FIG. 1.
# With SD rats (male, 250-300 g), an anesthetic drug was intraperitoneally administered to perform general anesthesia. Subsequently, a PE catheter was inserted into the left femoral artery to perform direct arterial pressure monitoring, and further, an exsanguination catheter from the right femoral artery and a left ventricle catheter for cardiac function measurement from the right common artery were each inserted.
# The shock phase was initiated with the initiation of exsanguination. Exsanguination was slowly performed over 15 minutes, and for a total of 60 minutes since the initiation of exsanguination, the mean arterial pressure was maintained at 30-35 mmHg.
# The resuscitation phase was initiated with the initiation of resuscitation by transfusion. Transfusion resuscitation by four times the exsanguinated volume of saline was performed over 15 minutes. Test gas inhalation (hydrogen group (21% oxygen+1.3% hydrogen) and control group (21% oxygen)) were performed for a total of 3 hours from the initiation of exsanguination to 2 hours after the initiation of resuscitation. In doing so, cardiac function (LVEDP, ±dP/dt) during the same period was also recorded.
# The initiation of the observation phase was 2 hours after the initiation of the resuscitation phase, and observation was performed for 4 hours thereafter (6 hours from the initiation of the resuscitation phase). During this period, blood pressure (systolic, diastolic, mean), heart rate, and the like were measured with artificial respiration in room air.
# Lactic acid value and blood gas at the initiation point of shock phase (baseline), the initiation point of resuscitation phase (0 minute), the initiation point of observation phase (120 minutes), and the end-of-test timepoint (360 minutes) were each measured and evaluated.
# [3] = change over time after initiation of resuscitation, vs control group
# [4] = change over time after initiation of resuscitation, vs control group, throughout the observation period
# [5] = electrolyte at 120 minutes, vs control group
compound,measurement,setting,value
[HH] [hydrogen gas],survival rate,[1],50%
same,heart rate,"[2]; after initiation of resuscitation, vs control group",no great difference
same,pH,"[2]; blood gas at 120 minutes, vs control group, normal value about 7.4",statistically significantly higher
same,HCO3,"[2]; blood gas at 120 minutes, vs control group, normal value about 24",statistically significantly higher
same,BE (base excess),"[2]; blood gas at 120 minutes, vs control group, normal value about -2",statistically significantly improved
same,left ventricular end-diastolic pressure (LVEDP),[2]; [3],no statistically significantly difference
same,negative dP/dt,[2]; [3],no statistically significantly difference
same,positive dP/dt,[2]; [3],no statistically significantly difference
same,diastolic blood pressure,[2]; [4],higher value
same,mean blood pressure,[2]; [4],higher value
same,systolic blood pressure,[2]; [4],higher value
same,K,[2]; [5],statistically significantly lower
same,Na,[2]; [5],no statistically significant difference
same,survival (individuals surviving),"[2]; end-of-test timepoint at 6 hours after initiation of resuscitation, control 3/10",8/10
same,Exsanguinated/body weight (ml/100 g),"[2]; 21% oxygen+1.3% hydrogen, N = 15",2.60±0.40 ml/100 g
same,Exsanguinated/body weight (ml/100 g),"[2]; 21% oxygen+1.3% hydrogen, N = 15, listed as H2",2.60 ± 0.40 ml/100 g
same,Exsanguinated,"[2]; exsanguinated volume to maintain mean arterial pressure at 30-35 mmHg, 21% oxygen+1.3% hydrogen, N = 15",7.03 ± 1.15 mL
same,hemoglobin (Hb),"[2]; extent of anemia at 120 minutes, vs control group",no statistically significant difference
same,lactic acid value,"[2]; initiation point of observation phase (120 minutes), vs control group, normal value 1.0 or less",statistically significantly lower
same,PaCO2 (Partial pressure of carbon dioxide),"[2]; oxygenation indicator at 120 minutes, vs control group, normal around 40 mmHg",no statistical difference
same,PaO2 (Partial pressure of oxygen),"[2]; oxygenation indicator at 120 minutes, vs control group, normal around 100 mmHg",higher values for the control group
